In patent publication US7569550B2, “14 and 15 membered ring compounds” (Glaxo Group Limited, priority 2003, dated 2009) one finds MIC data, which are given here for 10 compounds.

Structures can show the parent of a compound that is named as a salt.

Common to all, as to assay: MIC, standard broth dilution method in microtitre
Common to all, as to format: cell-based

The test system of test [1] is erythromycin resistant strains of Streptococcus pneumoniae. How it is done: (§1) Using a standard broth dilution method in microtitre, compounds were tested for antibacterial activity. The compounds in the above examples gave minimum inhibitory concentrations (MICs) less than 1 microgram per millilitre against erythromycin-sensitive and erythromycin-resistant strains of Streptococcus pneumoniae and Streptococcus pyogenes.

Test [2] concerns erythromycin resistant strains of Streptococcus pyogenes. Here is the method:
as §1

A further test deals with E. faecalis ATCC 29212. The settings on record: Enterococcus faecalis, ATCC29212. How it is done:
as §1
(§2) In addition, the MIC (μg/ml) of test compounds against various organisms was determined including:
(§3) S. aureus Smith ATCC 13709, S. pneumoniae SP030, S. pyogenes 3565, E. faecalis ATCC 29212, H. influenzae ATCC 49247, M. catarrhalis ATCC 23246.

The subject of test [3] is M. catarrhalis ATCC 23246. As to conditions: Moraxella catarrhalis, ATCC23246. Here is the method: as §1, §2, §3
The subject of a further test is H. influenzae ATCC 49247. As to conditions: Haemophilus influenzae, ATCC49247; H. influenzae ATCC 49247; read-out: MIC. Here is the method:
as §1, §2, §3

In the next test the test system is S. pneumoniae SP030. As to conditions: Streptococcus pneumoniae. How it is done:
as §1, §2, §3

Test [4] has as its system S. aureus Smith ATCC 13709. The settings on record: Staphylococcus aureus, ATCC13709. How it is done: as §1, §2, §3
A further test has as its system S. pyogenes 3565. As to conditions: Streptococcus pyogenes. Here is the method:
as §1, §2, §3

Consider `CC[C@H]1OC(=O)[C@H](C)[C@@H](O[C@H]2C[C@@](C)(OC)[C@@H](OCCCNCCCc3ccc4c(c3C)c(=O)c(C(=O)O)cn4CC)[C@H](C)O2)[C@H](C)[C@@H](O[C@@H]2O[C@H](C)CC(N(C)C)[C@H]2O)[C@](C)(OC)C[C@@H](C)C(=O)[C@@H](C)[C@H]2NC(=O)O[C@@]21C` (stereo partly drawn) [Example 23, 4″-O-{3-[3-(3-Carboxy-1-ethyl-5-methyl-4-oxo-1,4-dihydro-quinolin-6-yl)-propylamino]-propyl}-6-O-methyl-11-desoxy-11-(R)-amino-erythromycin A 11,12-carbamate formate], for which the MIC in test [1] is at most 1 µg/mL; in test [2], at most 1 µg/mL; in the test with E. faecalis ATCC 29212 it was at most 1 µg/mL; in test [3], at most 4 µg/mL; in the test with H. influenzae ATCC 49247, at most 4 µg/mL; in the test on S. pneumoniae SP030, at most 1 µg/mL. Further, the MIC (in test [4]; with S. pyogenes 3565) was at most 1 µg/mL throughout.

As for `CC[C@H]1OC(=O)[C@H](C)[C@@H](O[C@H]2C[C@@](C)(OC)[C@@H](OCCCN(C)CCSc3ccc4c(c3)c(=O)c(C(=O)O)cn4CC)[C@H](C)O2)[C@H](C)[C@@H](O[C@@H]2O[C@H](C)C[C@H](N(C)C)[C@H]2O)[C@](C)(OC)C[C@@H](C)C(=O)[C@@H](C)[C@H]2NC(=O)O[C@@]21C` [Example 32, 4″-O-{3-[[2-(3-Carboxy-1-ethyl-4-oxo-1,4-dihydro-quinolin-6-ylsulfanyl)-ethyl]-methylamino]-propyl}-6-O-methyl-11-desoxy-11-(R)-amino-erythromycin A 11,12-carbamate], the MIC in test [1] is at most 1 µg/mL; in test [2] it was at most 1 µg/mL; in the test on E. faecalis ATCC 29212, at most 1 µg/mL; in test [3], at most 4 µg/mL; in the test with H. influenzae ATCC 49247 it was at most 4 µg/mL; against S. pneumoniae SP030, at most 1 µg/mL. Further, the MIC (in test [4]; in the test with S. pyogenes 3565) was at most 1 µg/mL in each case.

`CC[C@H]1OC(=O)[C@H](C)[C@@H](O[C@H]2C[C@@](C)(OC)[C@@H](OCCCN(C)CCCc3cc4c5c(c3)c(=O)c(C(=O)O)cn5CCC4)[C@H](C)O2)[C@H](C)[C@@H](O[C@@H]2O[C@H](C)C[C@H](N(C)C)[C@H]2O)[C@](C)(OC)C[C@@H](C)C(=O)[C@@H](C)[C@H]2NC(=O)O[C@@]21C` [Example 31, 4″-O-{3-[[3-(2-Carboxy-1-oxo-6,7-dihydro-1H,5H-pyrido[3,2,1-ij]quinolin-9-yl)-propyl]-methylamino]-propyl}-6-O-methyl-11-desoxy-11-(R)-amino-erythromycin A 11,12-carbamate]: the MIC was at most 1 µg/mL in test [1]; at most 1 µg/mL in test [2]; at most 1 µg/mL against E. faecalis ATCC 29212; at most 4 µg/mL in test [3]; at most 4 µg/mL in the test on H. influenzae ATCC 49247; at most 1 µg/mL against S. pneumoniae SP030. Besides, the MIC (in test [4]; against S. pyogenes 3565) was at most 1 µg/mL in each case.

`CC[C@H]1OC(=O)[C@H](C)[C@@H](O[C@H]2C[C@@](C)(OC)[C@@H](OCCCN(C)CCNc3nc4c(cc3F)c(=O)c(C(=O)O)cn4CC)[C@H](C)O2)[C@H](C)[C@@H](O[C@@H]2O[C@H](C)C[C@H](N(C)C)[C@H]2O)[C@](C)(OC)C[C@@H](C)C(=O)[C@@H](C)[C@H]2NC(=O)O[C@@]21C` [Example 27, 4″-O-{3-[[2-(3-Carboxy-1-ethyl-6-fluoro-4-oxo-1,4-dihydro-[1,8]naphthyridin-7-ylamino)-ethyl]-methylamino]-propyl}-6-O-methyl-11-desoxy-11-(R)-amino-erythromycin A 11,12-carbamate formate]: the MIC in test [1] was at most 1 µg/mL; in test [2], at most 1 µg/mL; with E. faecalis ATCC 29212, at most 1 µg/mL; in test [3], at most 4 µg/mL; in the test on H. influenzae ATCC 49247 it was at most 4 µg/mL; against S. pneumoniae SP030, at most 1 µg/mL. Further, the MIC (in test [4]; against S. pyogenes 3565) was at most 1 µg/mL in each case.

Regarding `CC[C@@H]1OC(=O)[C@H](C)[C@H](O[C@@H]2C[C@](C)(OC)[C@H](OCCCN(C)CCCc3ccc4c(c3)c(=O)c(C(=O)O)cn4CC)[C@H](C)O2)[C@@H](C)[C@H](O[C@H]2O[C@@H](C)C[C@@H](N(C)C)[C@H]2O)[C@](C)(OC)C[C@H](C)C(=O)[C@H](C)[C@H]2NC(=O)O[C@@]12C` [Example 29, 4″-O-{3-[[3-(3-Carboxy-1-ethyl-4-oxo-1,4-dihydro-quinolin-6-yl)-propyl]-methylamino]-propyl}-6-O-methyl-11-desoxy-11-(R)-amino-erythromycin A 11,12-carbamate formate], the MIC in test [1] is at most 1 µg/mL; in test [2], at most 1 µg/mL; in the test on E. faecalis ATCC 29212 it was at most 1 µg/mL; in test [3], at most 4 µg/mL; with H. influenzae ATCC 49247, at most 4 µg/mL; in the test on S. pneumoniae SP030 it was at most 1 µg/mL. Besides, the MIC (in test [4]; against S. pyogenes 3565) was at most 1 µg/mL in each case.

In the case of `CC[C@@H]1OC(=O)[C@H](C)[C@H](O[C@@H]2C[C@](C)(OC)[C@H](OCCCN(C)CCCc3ccc4c(c3)c(=O)c(C(=O)O)cn4CC)[C@H](C)O2)[C@@H](C)[C@H](O[C@H]2O[C@@H](C)C[C@@H](N(C)C)[C@H]2O)[C@](C)(OC)C[C@H](C)C(=O)[C@H](C)[C@H]2OC(=O)O[C@@]12C` [Example 13, 4″-O-(3-{[3-(3-Carboxy-1-ethyl-4-oxo-1,4-dihydro-quinolin-6-yl)propyl]-methylamino}-propyl)-6-O-methyl-erythromycin A 11,12-carbonate formate], the MIC is at most 1 µg/mL in test [1]; at most 1 µg/mL in test [2]; at most 1 µg/mL against E. faecalis ATCC 29212; at most 4 µg/mL in test [3]; at most 4 µg/mL with H. influenzae ATCC 49247; at most 1 µg/mL against S. pneumoniae SP030. For the same compound, the MIC (in test [4]; with S. pyogenes 3565) was at most 1 µg/mL throughout.

`CC[C@H]1OC(=O)[C@H](C)[C@@H](O[C@H]2C[C@@](C)(OC)[C@@H](OCCCNCCNc3nc4c(cc3F)c(=O)c(C(=O)O)cn4CC)[C@H](C)O2)[C@H](C)[C@@H](O[C@@H]2O[C@H](C)CC(N(C)C)[C@H]2O)[C@](C)(OC)C[C@@H](C)C(=O)[C@@H](C)[C@H]2NC(=O)O[C@@]21C` (stereo partly drawn) [Example 21, 4″-O-{3-[2-(3-Carboxy-1-ethyl-6-fluoro-4-oxo-1,4-dihydro-[1,8]naphthyridin-7-ylamino)-ethylamino]-propyl}-6-O-methyl-11-desoxy-11-(R)-amino-erythromycin A 11,12-carbamate formate]: the MIC in test [1] was at most 1 µg/mL; in test [2], at most 1 µg/mL; in the test with E. faecalis ATCC 29212 it was at most 1 µg/mL; in test [3] it was at most 4 µg/mL; in the test with H. influenzae ATCC 49247, at most 4 µg/mL; in the test with S. pneumoniae SP030, at most 1 µg/mL. The MIC (in test [4]; against S. pyogenes 3565) was at most 1 µg/mL each time.

As for `CC[C@H]1OC(=O)[C@H](C)[C@@H](O[C@H]2C[C@@](C)(OC)[C@@H](OCCCN(C)CCCc3cnc4c(c3)c(=O)c(C(=O)O)cn4CC)[C@H](C)O2)[C@H](C)[C@@H](O[C@@H]2O[C@H](C)C[C@H](N(C)C)[C@H]2O)[C@](C)(OC)C[C@@H](C)C(=O)[C@@H](C)[C@H]2NC(=O)O[C@@]21C` [Example 30, 4″-O-{3-[[3-(3-Carboxy-1-ethyl-4-oxo-1,4-dihydro-6-[1,8]naphthryidinyl)-propyl]-methylamino]-propyl}-6-O-methyl-11-desoxy-11-(R)-amino-erythromycin A 11,12-carbamate], the MIC in test [1] is at most 1 µg/mL; in test [2], at most 1 µg/mL; in the test on E. faecalis ATCC 29212, at most 1 µg/mL; in test [3], at most 4 µg/mL; in the test on H. influenzae ATCC 49247, at most 4 µg/mL; with S. pneumoniae SP030, at most 1 µg/mL. Also, the MIC (in test [4]; against S. pyogenes 3565) was at most 1 µg/mL in each case.

Take `CC[C@@H]1OC(=O)[C@H](C)[C@H](O[C@@H]2C[C@](C)(OC)[C@H](OCCNCCNc3nc4c(cc3F)c(=O)c(C(=O)O)cn4CC)[C@H](C)O2)[C@@H](C)[C@H](O[C@H]2O[C@@H](C)C[C@@H](N(C)C)[C@H]2O)[C@](C)(OC)C[C@H](C)C(=O)[C@H](C)[C@H](O)[C@@]1(C)O` [Example 18, 4″-O-{2-[2-(3-Carboxy-1-ethyl-6-fluoro-4-oxo-1,4-dihydro-[1,8]naphthyridin-7-ylamino)ethyl]-amino}-ethyl}-6-O-methyl-erythromycin A monoformate]: the MIC in test [1] was at most 1 µg/mL; in test [2], at most 1 µg/mL; in the test on E. faecalis ATCC 29212, at most 1 µg/mL; in test [3], at most 4 µg/mL; with H. influenzae ATCC 49247, at most 4 µg/mL; in the test on S. pneumoniae SP030, at most 1 µg/mL. In addition, the MIC (in test [4]; with S. pyogenes 3565) was at most 1 µg/mL in each case.

With `CC[C@@H]1OC(=O)[C@H](C)[C@H](O[C@@H]2C[C@](C)(OC)[C@H](OCCCN(C)CCNc3cc4c(cc3F)c(=O)c(C(=O)O)cn4C3CC3)[C@H](C)O2)[C@@H](C)[C@H](O[C@H]2O[C@@H](C)C[C@@H](N(C)C)[C@H]2O)[C@](C)(OC)C[C@H](C)C(=O)[C@H](C)[C@H]2OC(=O)O[C@@]12C` [Example 2, 4″-O-(3-{[2-(3-Carboxy-1-cyclopropyl-6-fluoro-4-oxo-1,4-dihydro-quinolin-7-ylamino)ethyl]-methylamino}-propyl)-6-O-methyl-erythromycin A 11,12-carbonate], the MIC in test [1] was at most 1 µg/mL; in test [2] it was at most 1 µg/mL; in the test on E. faecalis ATCC 29212, at most 1 µg/mL; in test [3] it was at most 4 µg/mL; in the test with H. influenzae ATCC 49247, at most 4 µg/mL; against S. pneumoniae SP030 it was at most 1 µg/mL. For the same compound, the MIC (in test [4]; in the test on S. pyogenes 3565) was at most 1 µg/mL each time.
